Measurements from patent US9546129B2, “DTPA prodrugs, compositions thereof, and methods of using the same” (priority 2012, dated 2017).
In brackets after ≈: the same amount, converted by molar mass.

Assays:
[1] = Aqueous solubility, preliminary test; assay type: physicochemical; details: thermodynamic from solid; distilled water, 10 minutes stirring, visual check, sample JH012B; read-out: Approximate solubility
Experimental: A small sample of C2E2 (0.1 g, JH012B) was weighed out and placed in a 25 mL graduated cylinder. Increasing volumes of distilled water were added according to the chart below:
After each addition of the indicated amount of water, the mixture was stirred for 10 minutes and visually checked for any dissolved parts of the sample. […] The approximate solubility is therefore 10-50 g/L.

^241Am contaminated rats = assay: C2E2 single dose ^241Am decorporation in rats (IM contamination); assay type: in vivo, Sprague Dawley rat; details: for Cage Wash ^241Am / Feces ^241Am / Liver burden / Total Decorporation / Urine ^241Am: single dose 24 h after IM ^241Am, 7 days
Experimental: This study was to assess the efficacy of a single oral gavage dose of C2E2 in ^241Am contaminated rats. A 200 μL aliquot was withdrawn from a stock solution of ^241Am nitrate (0.1 mCi in 5 mL 1 M HNO3), evaporated to dryness, dissolved in concentrated HNO3 (15 M, 5 mL) then evaporated to dryness and dissolved in dilute HNO3 (0.1 M, 8 mL) to form the injection solution. Groups of 4 female Sprague-Dawley rats were contaminated with 250 nCi of ^241Am nitrate by IM injection ([…]) then were administered single doses of C2E2 by gavage at 200, 600, or 1000 mg/kg under ad lib feeding conditions utilizing a 10% w/w solution in sterile water (dose volumes were 2, 6, and 10 mL/kg, for the 200, 600, and 1000 mg/kg doses, respectively). For the fasted component of the study, the animals were fasted 24 hours before treatment then for 2 hours post drug administration. Control groups with ad lib access to food and water were either untreated or administered an IV dose of the calcium salt of DTPA (Ca-DTPA) at 14 mg/kg (target dose volume of 0.7 mL/kg and concentration of 20 mg/mL). Treatment was administered 1 day after contamination. All animals were euthanized 7 days after contamination and the following tissues were collected: liver, both kidneys, both femurs as well as the ipsilateral and the contralateral hind leg muscle tissue and the pelt from the injection site. Urine and feces were collected from the time of contamination through euthanasia. Cage washings were also collected at the end of the study and considered part of total urine collection. Two aliquots (100 μL) of the injection solution were removed and ^241Am gamma activity was determined using radiomatic detection. The average of these standards is the injected dose used for all animals. All tissues and samples were counted in a similar manner. Americium content was expressed as a percentage of the injected dose. Overall recovery of radioactivity across all groups in this study was approximately 90%. […] The primary route by which both DTPA and C2E2 enhanced elimination of ^241Am occurred was by urinary clearance. […] Fecal clearance of ^241Am was not altered by feeding status, an observation that is consistent with the similar liver burden between the two groups at the end of the study. […] As with DTPA, enhanced decorporation by C2E2 occurred through enhanced urinary clearance.
Male and female Sprague Dawley rats (n=4/gender/dose) were administered single oral doses of diethylenetriaminepentaacetic acid diethyl ester (C2E2) by gavage 24 hours after intramuscular contamination with ^241Am(NO3)3 (250 nCi) under ad libitum and fasted conditions. Animals received single oral nominal doses of 200, 600, or 1000 mg/kg C2E2. Untreated animals and animals treated with an intravenous dose of Ca-DTPA ([…]) 24 hours after contamination served as controls; only ad libitum conditions were used for control animals. Total radionuclide decorporation and radionuclide tissue burden were evaluated seven days after contamination.
Male and female Sprague Dawley rats were contaminated with ^241Am(NO3)3 (0.25 μCi) by intramuscular injection (0.1 mL, 0.1 M HNO3) into the right hind leg, under isoflurane anesthesia. Immediately after injection, body weights were recorded (Day 0 weight) and animals were placed in individual metabolic cages.
Approximately eight hours after contamination—and 16 hours before test article administration—rats assigned to the Fasted groups had access to food restricted by removing the food chamber from their metabolic cages and collecting all loose chow from their housing chambers. Food chambers were replaced 1 hour after oral gavage treatment, restoring access to food. At all other times all animals had ad libitum access to food.
Male and female Sprague-Dawley rats assigned to test groups each received a single oral gavage dose of 0, 200, 600, or 1000 mg/kg of C2E2 utilizing a 10% w/w solution in water 24 hours after contamination. […]

[2] = C2E2 200 mg/kg gavage, ad lib, female rats
[3] = C2E2 200 mg/kg gavage, fasted, female rats
[4] = C2E2 600 mg/kg gavage, ad lib, female rats
[5] = C2E2 600 mg/kg gavage, fasted, female rats
[6] = C2E2 1000 mg/kg gavage, ad lib, female rats
[7] = C2E2 1000 mg/kg gavage, fasted, female rats

CCOC(=O)CN(CCN(CCN(CC(=O)O)CC(=O)OCC)CC(=O)O)CC(=O)O [C2E2, 6,9-bis(carboxymethyl)-3-(2-ethoxy-2-oxoethyl)-11-oxo-12-oxa-3,6,9-triazatetradecan-1-oic acid]
solubility at 10 min [1]: 10 to 50 mg/mL (≈ 22.2 to 111 mM) | Cage Wash ^241Am (^241Am contaminated rats; [2]): 1.8 ± 0.5% | Feces ^241Am (^241Am contaminated rats; [2]): 5.9 ± 0.8% | Liver burden (^241Am contaminated rats; [2]): 17.7 ± 2.1 % injected | Total Decorporation (^241Am contaminated rats; [2]): 14.4 ± 0.7 % injected | Urine ^241Am (^241Am contaminated rats; [2]): 6.7 ± 1.5% | Cage Wash ^241Am (^241Am contaminated rats; [3]): 1.3 ± 0.5% | Feces ^241Am (^241Am contaminated rats; [3]): 4.7 ± 2.1% | Liver burden (^241Am contaminated rats; [3]): 20.9 ± 3.5 % injected | Total Decorporation (^241Am contaminated rats; [3]): 14.3 ± 3.2 % injected | Urine ^241Am (^241Am contaminated rats; [3]): 8.4 ± 1.3% | Cage Wash ^241Am (^241Am contaminated rats; [4]): 2.2 ± 0.8% | Feces ^241Am (^241Am contaminated rats; [4]): 7.7 ± 2.0% | Liver burden (^241Am contaminated rats; [4]): 18.6 ± 4.5 % injected | Total Decorporation (^241Am contaminated rats; [4]): 22.3 ± 3.1 % injected | Urine ^241Am (^241Am contaminated rats; [4]): 12.4 ± 1.3% | Cage Wash ^241Am (^241Am contaminated rats; [5]): 2.6 ± 0.8% | Feces ^241Am (^241Am contaminated rats; [5]): 7.3 ± 1.5% | Liver burden (^241Am contaminated rats; [5]): 18.9 ± 2.3 % injected | Total Decorporation (^241Am contaminated rats; [5]): 24.2 ± 3.3 % injected | Urine ^241Am (^241Am contaminated rats; [5]): 14.3 ± 2.9% | Cage Wash ^241Am (^241Am contaminated rats; [6]): 3.4 ± 0.3% | Feces ^241Am (^241Am contaminated rats; [6]): 6.9 ± 1.7% | Liver burden (^241Am contaminated rats; [6]): 14.5 ± 1.5 % injected | Total Decorporation (^241Am contaminated rats; [6]): 23.8 ± 3.0 % injected | Urine ^241Am (^241Am contaminated rats; [6]): 13.5 ± 1.7% | Cage Wash ^241Am (^241Am contaminated rats; [7]): 4.5 ± 0.7% | Feces ^241Am (^241Am contaminated rats; [7]): 7.1 ± 1.3% | Liver burden (^241Am contaminated rats; [7]): 13.7 ± 3.1 % injected | Total Decorporation (^241Am contaminated rats; [7]): 31.3 ± 5.5 % injected | Urine ^241Am (^241Am contaminated rats; [7]): 19.8 ± 3.9% | Efficacy compared with intravenous Ca-DTPA (^241Am contaminated rats; C2E2 1000 mg/kg single oral dose vs Ca-DTPA 13.3 mg/kg iv, no equivalence analysis): comparable, in terms of efficacy, to an intravenous dose of Ca-DTPA (13.3 mg/kg) | Effect of fasting on efficacy of the C2E2 dose (^241Am contaminated rats; daily urinary and fecal americium, male and female rats): not altered by fasting rats prior to their C2E2 treatment | Skeletal burden vs untreated controls (statistics) (^241Am contaminated rats; female rats): not significantly changed by C2E2 treatment | Dose with significantly enhanced decorporation vs untreated controls (^241Am contaminated rats; female rats, p<0.001): above 600 mg/kg | ^241Am liver burden vs untreated controls (statistics) (^241Am contaminated rats; female rats, p<0.01): Only the reduction in burden following the 1000 mg/kg dose was statistically significant | Wound site retention of americium vs untreated controls (statistics) (^241Am contaminated rats; male and female rats): did not correspond with a significant change in tissue burden compared to untreated controls at any single C2E2 dose | Dose with significant reduction of estimated skeletal americium burden vs untreated controls (^241Am contaminated rats; male rats): ≥ 600 mg/kg | ^241Am liver burden vs untreated controls (statistics) (^241Am contaminated rats; male rats): significantly reduced compared to untreated controls at doses of 200 mg/kg (p<0.05) and 1000 mg/kg (p<0.001) | Dose with significantly increased total decorporation vs untreated controls (^241Am contaminated rats; male rats, p<0.001): ≥ 600 mg/kg
